From US20230247989A1, “Synergistic Biocide Composition With a Polyglycerol Ester” (Arch UK Biocides Ltd, priority 2020, published 2023)

Test system: Pseudomonas aeruginosa ATCC 15442
Test: Suspension test for synergy: log reduction of Pseudomonas aeruginosa after 5 min contact
Type: cell-based
Conditions: for Log Reduction: 5 minutes contact
Protocol: The target organism Pseudomonas aeruginosa ATCC 15442 was taken from freezer stocks and grown for 24 hours on tryptone soy agar (TSA) at 37° C. A second subculture was produced from the first and grown with the same conditions. A test suspension was then created by adding loopfuls of organism to tryptone buffered saline and adjusting the cell concentration to 1×10^8 and 5×10^8 CFU/ml using an internally established calibration curve spectrophotometer at a wavelength of 600 nm. To establish the precise CFU/ml a 1 ml aliquot was then taken from the test suspension and serially diluted down to 10^−6 and 10^−7, 1 ml of each dilution was then plated in duplicate using the pour plate method on to TSA. The plates were then incubated for 24 hours at 37° C. and enumerated.
For each biocide tested a series of 3 samples were prepared in sterile distilled water,
Test sample 1—Biocide alone (to measure basic efficacy of the biocide)
Test sample 2—Biocide in combination with polyglyceryl-10 caprylate/caprate (to measure the efficacy of the combination of biocide and polyglycerol ester)
Control—A control sample of polyglyceryl-10 caprylate/caprate was prepared in deionized water to measure the efficacy of polyglycerol ester alone.
Each test sample was prepared at a concentration 10% higher than that of the target concentration to account for the dilution effect from the addition of the test organism suspension during the test procedure.
A test mixture was prepared by adding a 0.1 ml aliquot of test organism suspension to a tube followed by 0.9 ml of test sample (prepared as above). The combination was then mixed and a timer started immediately.
Upon achieving the specified contact time the test mixture was deactivated by adding a 0.1 ml aliquot of the test mixture to 0.9 ml of neutralizing broth and the whole solution mixed. The solution was left for 5 minutes to ensure the action of the biocide was effectively neutralized.
To quantify the surviving number of organisms in the neutralized test mixture, 4×0.025 ml aliquots were taken and spot plated onto the surface of dried TSA. The plates were then incubated for 24 hours at 37° C.
For spot plating, colonies from the incubated plates were enumerated using the lower count limit of <1 and the upper count limit of >150. […] For the upper limit, if 156 colonies were counted on a plate, >150 would be recorded and 150 would be used for the calculation.
Enumeration and Calculation of T (Test Mixture) • First, the mean average of cfu per 0.025 ml spots was established using the below calculation,
Log Reduction Calculations (N0−T) • Before calculating the log reduction both N0 and T were converted into a logarithm base 10 value. For example;
The test procedure outlined above was used to test for synergy between polyglyceryl-10 caprylate/caprate (PG1000) and the various biocidal agents listed in Table 1. Varying concentrations were prepared and were tested at 5 mins for the presence of Pseudomonas aeruginosa.

N=C(NCCCCCCNC(=N)NC(=N)Nc1ccc(Cl)cc1)NC(=N)Nc1ccc(Cl)cc1 [Chlorhexidine, reference compound]
Log Reduction (biocide alone 65 ppm): 3.44

CCCCCCCCCCCCN(C)C.Cl [Dodecyledimethylammonuim chloride]
Log Reduction (biocide alone 20 ppm): 3.88

CC(C)O [Isopropanol]
Log Reduction (biocide alone 16%): <2.85

CCCCCCCCCCCCN(CCCN)CCCN [N-(3-aminopropyl)-N-dodecylpropane-1,3-diamine]
Log Reduction (biocide alone 50 ppm): 2.98

polyglyceryl-10 caprylate/caprate [PGE Control]
Log Reduction (PGE alone 100 ppm in deionized water): <2.92
activity (in words) (at 100 ppm, 5 mins): little or no activity
